The structures appear in SMILES notation.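 Five concentrations, 48 hours, 96-well plates. TGI marks complete inhibition of growth.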

Among the test systems are DU-145 prostate; SF-295 CNS; RXF 393 renal; MOLT-4 leukemia; SK-MEL-28 melanoma; SF-539 CNS; OVCAR-5 ovarian; OVCAR-8 ovarian; MDA-MB-435; KM12 colon.
Assay in all cases: DTP human tumour cell line panel, 48 h

The term TGI denotes the concentration at which net growth stops. The low end stands for greater sensitivity of the cells, the high end for lower sensitivity of the cells. For `COc1ccc(/C=C2\Sc3nnc(CNc4ccc(Cl)cc4)n3N=C2c2cc(F)c(Cl)cc2Cl)cc1OC`, the TGI is greater than 100 µM in the assay on DU-145 prostate; greater than 100 µM in the assay with SF-295 CNS; 74.2 µM in the assay on RXF 393 renal; greater than 100 µM with MOLT-4 leukemia; greater than 100 µM with SK-MEL-28 melanoma; greater than 100 µM in the assay with SF-539 CNS. Also, the total growth inhibition concentration (TGI) in the assay on OVCAR-5 ovarian, in the assay with OVCAR-8 ovarian, with MDA-MB-435 and with KM12 colon was greater than 100 µM in each case.

Turning to `CCCCCCOc1ccc(C(=O)N(C)O)cc1`, the TGI in the assay with DU-145 prostate is 66 µM; in the assay on SF-295 CNS, greater than 62.4 µM; in the assay with RXF 393 renal, 97.6 µM; with MOLT-4 leukemia it was 50.4 µM; in the assay with SK-MEL-28 melanoma it was greater than 100 µM; in the assay on SF-539 CNS, 44.6 µM. The TGI with OVCAR-5 ovarian was greater than 100 µM; in the assay on OVCAR-8 ovarian it was 61 µM; in the assay with MDA-MB-435, 98.1 µM; in the assay on KM12 colon, greater than 100 µM.

Consider `Cc1ccc(N=NN(C)C(=O)C(C)N)cc1` (configuration not stated), for which the TGI in the assay with DU-145 prostate, in the assay with SF-295 CNS, in the assay on RXF 393 renal, with MOLT-4 leukemia, in the assay on SK-MEL-28 melanoma and in the assay with SF-539 CNS was greater than 100 µM in each case. The TGI in the assay on OVCAR-5 ovarian, in the assay on OVCAR-8 ovarian, with MDA-MB-435 and with KM12 colon was greater than 100 µM each time.

With `COc1ccc2c(c1)CCCN2S(=O)(=O)c1ccccc1[N+](=O)[O-]`, the TGI was greater than 100 µM in the assay with DU-145 prostate; greater than 100 µM with SF-295 CNS; 55.9 µM in the assay on RXF 393 renal; 67.3 µM in the assay on MOLT-4 leukemia; greater than 100 µM in the assay on SK-MEL-28 melanoma; 68.8 µM in the assay on SF-539 CNS. The TGI in the assay on OVCAR-5 ovarian was greater than 100 µM; in the assay on OVCAR-8 ovarian it was greater than 89.4 µM; in the assay on MDA-MB-435, 22 µM; in the assay on KM12 colon it was greater than 100 µM.

Turning to `COc1ccccc1N=N/C(=N\NC(=O)c1ccc(C)cc1)c1ccc(N(CCC#N)CCC#N)cc1C`, the TGI in the assay with DU-145 prostate, with SF-295 CNS, with RXF 393 renal, with MOLT-4 leukemia, in the assay on SK-MEL-28 melanoma and in the assay with SF-539 CNS was greater than 100 µM each time. Besides, the TGI in the assay with OVCAR-5 ovarian, in the assay on OVCAR-8 ovarian, in the assay with MDA-MB-435 and with KM12 colon was greater than 100 µM throughout.

On to `O=C(NC(Nc1ccc(F)cc1)(C(F)(F)F)C(F)(F)F)C(C(F)(F)F)C(F)(F)F`, for which the TGI was greater than 100 µM with DU-145 prostate; greater than 100 µM in the assay on SF-295 CNS; greater than 100 µM in the assay on RXF 393 renal; 36.2 µM in the assay on MOLT-4 leukemia; greater than 100 µM with SK-MEL-28 melanoma; greater than 85.9 µM in the assay with SF-539 CNS. Also, the TGI in the assay on OVCAR-5 ovarian, in the assay with OVCAR-8 ovarian, in the assay with MDA-MB-435 and in the assay with KM12 colon was greater than 100 µM each time.

`NC(Cc1ccc(S(=O)(=O)O)cc1)C(=O)NC(Cc1ccc(S(=O)(=O)O)cc1)C(=O)NC(Cc1ccc(S(=O)(=O)O)cc1)C(=O)O` (configuration not stated): the TGI with DU-145 prostate, with SF-295 CNS, in the assay with RXF 393 renal, with MOLT-4 leukemia, with SK-MEL-28 melanoma and in the assay with SF-539 CNS was greater than 100 µM throughout. Besides, the TGI in the assay on OVCAR-5 ovarian, in the assay on OVCAR-8 ovarian, in the assay with MDA-MB-435 and with KM12 colon was greater than 100 µM each time.

As for `O=C(NCCN1CCCCC1)c1ccc(I)cc1`, the TGI in the assay on DU-145 prostate, with SF-295 CNS, with RXF 393 renal, in the assay on MOLT-4 leukemia, with SK-MEL-28 melanoma and in the assay on SF-539 CNS was greater than 100 µM throughout. Moreover, the TGI in the assay with OVCAR-5 ovarian, in the assay on OVCAR-8 ovarian, in the assay with MDA-MB-435 and in the assay on KM12 colon was greater than 100 µM each time.

In the case of `COc1ccc(/C=C2/NC(=S)N=C2Cl)cc1`, the TGI in the assay with DU-145 prostate, in the assay on SF-295 CNS, in the assay on RXF 393 renal, in the assay with MOLT-4 leukemia, in the assay on SK-MEL-28 melanoma and in the assay with SF-539 CNS was greater than 100 µM each time. Further, the TGI in the assay with OVCAR-5 ovarian is 37.9 µM; in the assay with OVCAR-8 ovarian, greater than 100 µM; with MDA-MB-435, greater than 100 µM; with KM12 colon, greater than 100 µM.

As for `O=C(CN1CCOCC1)c1ccc2c(c1)oc(=O)n2CCN1CCCC1`, the TGI with DU-145 prostate, with SF-295 CNS, with RXF 393 renal, with MOLT-4 leukemia, in the assay with SK-MEL-28 melanoma and in the assay on SF-539 CNS was greater than 100 µM throughout. In addition, the TGI with OVCAR-5 ovarian, with OVCAR-8 ovarian, in the assay with MDA-MB-435 and with KM12 colon was greater than 100 µM in each case.

For `CN1C=Cc2nccc3cc4c(c1c23)OCO4`, the TGI is greater than 25.1 µM with DU-145 prostate; 10.1 µM with SF-295 CNS; 7.61 µM in the assay on RXF 393 renal; greater than 93 µM in the assay with MOLT-4 leukemia; 39.2 µM with SK-MEL-28 melanoma; 66.3 µM with OVCAR-5 ovarian. Besides, the results for the TGI in the assay with OVCAR-8 ovarian, in the assay with MDA-MB-435 and in the assay with KM12 colon were greater than 100 µM, 12.1 µM and 17.6 µM, respectively.

On to `CC1(C)C2CC3C4CC5(Nc6ccccc6C5N41)[C@]3(C)CC2=O` (some centres not stated), for which the TGI with DU-145 prostate, with SF-295 CNS, with RXF 393 renal, with MOLT-4 leukemia, in the assay on SK-MEL-28 melanoma and in the assay on SF-539 CNS was greater than 50 µM in each case. Also, the TGI with OVCAR-5 ovarian, with OVCAR-8 ovarian, in the assay on MDA-MB-435 and in the assay with KM12 colon was greater than 50 µM in each case.

With `O=C1NC(=O)/C(=C/c2ccc(S(=O)(=O)N/N=C\C(O)C(O)C(O)C(O)CO)cc2)N1` (configuration not stated), the total growth inhibition concentration (TGI) with DU-145 prostate, with SF-295 CNS, in the assay on RXF 393 renal, in the assay on MOLT-4 leukemia, in the assay with SK-MEL-28 melanoma and in the assay on OVCAR-5 ovarian was greater than 100 µM each time. For the same compound, the concentration for total growth inhibition (TGI) with OVCAR-8 ovarian, in the assay on MDA-MB-435 and in the assay on KM12 colon was greater than 100 µM throughout.

`N#Cc1c(O)cc(=O)n2c1[nH]c1ccccc12`: the TGI with DU-145 prostate, in the assay on SF-295 CNS, with RXF 393 renal, in the assay with MOLT-4 leukemia, in the assay with SF-539 CNS and with OVCAR-5 ovarian was greater than 100 µM throughout. In addition, the TGI in the assay on OVCAR-8 ovarian, in the assay on MDA-MB-435 and with KM12 colon was greater than 100 µM each time.

The record behind these values is PubChem BioAssay (NCI).
